Assay results published in publication PMC12490239, “Combining BET inhibition with SMAC mimetics restricts tumor growth and triggers immune surveillance in preclinical cancer models” (Cell Reports Medicine, 2025).

Tests used:
Test in all cases: cells
Design in all cases: CellTiter-Glo 2.0 luminescence proliferation/viability assay, single agents, human tumour cell line panel
SNU1235 = conditions: 96 h; single agent; read-out: IC50 SMACm
In short: (§1)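 Human tumour cell lines were seeded into assay plates and held at 37°C with 5% CO2 for twenty-four hours, then exposed in triplicate to rising concentrations of the SMAC mimetic, from 4.5 nM to 10 μM, with DMSO as control. After 96 h, viability was read as CellTiter-Glo2.0 luminescence to derive single-agent IC50 values.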

COR-L105 = conditions: Homo sapiens, COR-L105, 96 h; single agent; read-out: IC50 SMACm
In short: as §1

A549 = conditions: Homo sapiens, A549, 96 h; single agent; read-out: IC50 SMACm
In short: as §1

COLO-741 = conditions: Homo sapiens, COLO-741, 96 h; single agent; read-out: IC50 SMACm
In short: as §1

CCK81 = conditions: 96 h; single agent; read-out: IC50 SMACm
In short: as §1

NCI-SNU-1 = conditions: 96 h; single agent; read-out: IC50 SMACm
In short: as §1

SNU1047 = conditions: 96 h; single agent; read-out: IC50 SMACm
In short: as §1

SNU-16 = conditions: Homo sapiens, SNU-16, 96 h; single agent; read-out: IC50 SMACm
In short: as §1

SNU-668 = conditions: SNU668, 96 h; single agent; read-out: IC50 SMACm
In short: as §1

LS-411N = conditions: Homo sapiens, LS-411N, 96 h; single agent; read-out: IC50 SMACm
In short: as §1

NCI-H1373 = conditions: Homo sapiens, NCI-H1373, 96 h; single agent; read-out: IC50 SMACm
In short: as §1

HCC95 = conditions: Homo sapiens, HCC95, 96 h; single agent; read-out: IC50 SMACm
In short: as §1

NCI-H1975 = conditions: Homo sapiens, NCI-H1975, 96 h; single agent; read-out: IC50 SMACm
In short: as §1

NCI-H838 = conditions: Homo sapiens, NCI-H838, 96 h; single agent; read-out: IC50 SMACm
In short: as §1

KM20 = conditions: 96 h; single agent; read-out: IC50 SMACm
In short: as §1

With `CN[C@@H](C)C(=O)Nc1ccc(-c2c(-c3cccnc3OC)nc3cc(C)ccn23)c(C#Cc2ccc3c(C)nccc3c2)n1` [SMACm, BI 891065] as the compound, how does the IC50 (SNU1235) read?
Its IC50 is 2.14 µM.

And the IC50 (COR-L105)?
The IC50 was 4.47 µM.

What about the IC50 (A549) of the same compound?
Its IC50 is greater than 10 µM.

And the IC50 (COLO-741)?
Its IC50 is 0.831 µM.

What about the IC50 (CCK81) of the same compound?
The IC50 was 7.34 µM.

What about the IC50 (NCI-SNU-1) of the same compound?
Its IC50 is 6.16 µM.

What about the IC50 (SNU1047) of the same compound?
Its IC50 is 2.79 µM.

What about the IC50 (SNU-16) of the same compound?
Its IC50 is 4.32 µM.

What about the IC50 (SNU-668) of the same compound?
Its IC50 is 6.29 µM.

And the IC50 (LS-411N)?
The IC50 was 4.43 µM.

What about the IC50 (NCI-H1373) of the same compound?
The IC50 was greater than 10 µM.

What about the IC50 (HCC95) of the same compound?
The IC50 was 6.09 µM.

What about the IC50 (NCI-H1975) of the same compound?
The IC50 was 4.63 µM.

And the IC50 (NCI-H838)?
Its IC50 is 4.18 µM.

And the IC50 (KM20)?
Its IC50 is 5.04 µM.
